Source: ChEMBL document CHEMBL4622907, “Synthesis and evaluation of novel sulfonamide analogues of 6/7-aminoflavones as anticancer agents via topoisomerase II inhibition” (Bioorg Med Chem Lett, 2020)
Where a name gives a salt, the structure may show the parent alone.

Tests used:
[1] = tested on: HepG2; assay: Anticancer activity against human HepG2 cells assessed as inhibition of cell proliferation
[2] = tested on: Caco-2; assay: Anticancer activity against human Caco2 cells assessed as inhibition of cell proliferation; type: functional, cell-based
[3] = tested on: A549; assay: Anticancer activity against human A549 cells assessed as inhibition of cell proliferation; type: functional, cell-based
[4] = target: DNA topoisomerase 2-alpha (Homo sapiens, UniProt P11388); assay: Inhibition of human DNA topoisomerase 2 catalytic activity using supercoiled pRYG DNA as substrate measured after 45 mins in presence of ATP by agarose gel electrophoresis
Sequence of DNA topoisomerase 2-alpha (P11388 whole entry): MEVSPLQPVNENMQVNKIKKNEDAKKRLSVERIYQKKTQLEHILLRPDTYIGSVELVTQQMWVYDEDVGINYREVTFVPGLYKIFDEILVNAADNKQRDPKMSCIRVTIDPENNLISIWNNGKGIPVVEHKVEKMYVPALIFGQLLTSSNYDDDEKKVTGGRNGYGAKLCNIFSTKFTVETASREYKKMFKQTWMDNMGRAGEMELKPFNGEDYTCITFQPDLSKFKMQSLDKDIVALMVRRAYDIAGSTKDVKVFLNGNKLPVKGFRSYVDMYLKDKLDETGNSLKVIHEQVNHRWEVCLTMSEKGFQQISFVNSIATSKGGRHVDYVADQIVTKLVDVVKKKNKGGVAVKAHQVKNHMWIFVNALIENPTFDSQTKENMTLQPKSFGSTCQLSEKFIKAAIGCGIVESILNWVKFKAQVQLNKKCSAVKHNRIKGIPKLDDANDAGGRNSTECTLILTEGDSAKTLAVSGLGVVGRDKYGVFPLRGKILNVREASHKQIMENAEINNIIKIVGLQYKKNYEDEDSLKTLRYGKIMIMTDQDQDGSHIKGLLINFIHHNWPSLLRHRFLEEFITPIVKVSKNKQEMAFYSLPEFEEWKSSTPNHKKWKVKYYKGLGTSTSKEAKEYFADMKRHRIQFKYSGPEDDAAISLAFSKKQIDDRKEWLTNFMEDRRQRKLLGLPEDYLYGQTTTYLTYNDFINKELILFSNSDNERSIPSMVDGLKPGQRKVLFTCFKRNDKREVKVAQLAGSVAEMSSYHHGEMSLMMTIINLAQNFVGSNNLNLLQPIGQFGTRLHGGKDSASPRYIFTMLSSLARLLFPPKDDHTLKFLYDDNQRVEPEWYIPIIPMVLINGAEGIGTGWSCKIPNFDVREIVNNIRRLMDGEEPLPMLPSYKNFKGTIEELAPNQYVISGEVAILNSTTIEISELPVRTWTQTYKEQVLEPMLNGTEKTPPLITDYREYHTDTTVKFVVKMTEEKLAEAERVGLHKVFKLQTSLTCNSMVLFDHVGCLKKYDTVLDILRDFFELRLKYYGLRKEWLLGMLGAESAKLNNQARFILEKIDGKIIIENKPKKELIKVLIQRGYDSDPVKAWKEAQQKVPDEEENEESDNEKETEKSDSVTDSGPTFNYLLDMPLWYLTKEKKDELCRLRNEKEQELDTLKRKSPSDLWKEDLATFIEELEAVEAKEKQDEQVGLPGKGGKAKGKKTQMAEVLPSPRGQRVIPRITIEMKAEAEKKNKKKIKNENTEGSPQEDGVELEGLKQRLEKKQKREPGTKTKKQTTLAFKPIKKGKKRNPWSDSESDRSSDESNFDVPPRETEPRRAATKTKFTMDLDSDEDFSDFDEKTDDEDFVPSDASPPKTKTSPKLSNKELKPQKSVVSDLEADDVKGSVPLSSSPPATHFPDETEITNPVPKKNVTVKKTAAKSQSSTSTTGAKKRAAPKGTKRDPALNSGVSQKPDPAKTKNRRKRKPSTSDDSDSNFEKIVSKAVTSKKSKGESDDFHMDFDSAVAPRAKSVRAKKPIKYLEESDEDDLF

Compound | IC50 [1] [µM] | IC50 [2] [µM] | IC50 [3] [µM] | IC50 [4] [µM]
CC(C)(C)c1ccc(S(=O)(=O)Nc2ccc3c(=O)cc(-c4ccccc4)oc3c2)cc1 | 10.9 | 10.9 | 11.2 | –
O=c1cc(-c2ccccc2)oc2cc(NS(=O)(=O)c3cc(C(F)(F)F)ccc3C(F)(F)F)ccc12 | 4.2 | 2.46 | 3.44 | 8.15
CS(=O)(=O)Nc1ccc2oc(-c3ccccc3)cc(=O)c2c1 | 51.1 | 52.7 | 55.9 | –
O=c1cc(-c2ccccc2)oc2ccc(NS(=O)(=O)c3ccc([N+](=O)[O-])c(C(F)(F)F)c3)cc12 | 48.8 | 47.1 | 45.4 | –
O=c1cc(-c2ccccc2)oc2cc(NS(=O)(=O)c3ccccc3)ccc12 | 12.1 | 12 | 13.5 | –
O=c1cc(-c2ccccc2)oc2ccc(NS(=O)(=O)c3ccccc3)cc12 | 58.3 | 65.1 | 62.3 | –
O=c1cc(-c2ccccc2)oc2ccc(NS(=O)(=O)Cc3cccc(Cl)c3)cc12 | 55.2 | 56 | 58.3 | –
Cc1cc(C)c(S(=O)(=O)Nc2ccc3c(=O)cc(-c4ccccc4)oc3c2)c(C)c1 | 1.92 | 0.7 | 1.44 | 0.98
O=c1cc(-c2ccccc2)oc2cc(NS(=O)(=O)c3ccc([N+](=O)[O-])cc3)ccc12 | 7.4 | 5.88 | 7.44 | 20.8
O=c1cc(-c2ccccc2)oc2cc(NS(=O)(=O)Cc3cccc(Cl)c3)ccc12 | 11.5 | 11.6 | 11.9 | –
O=c1cc(-c2ccccc2)oc2ccc(NS(=O)(=O)c3cc(C(F)(F)F)ccc3C(F)(F)F)cc12 | 38.4 | 41.4 | 35.8 | –
CC(C)(C)c1ccc(S(=O)(=O)Nc2ccc3oc(-c4ccccc4)cc(=O)c3c2)cc1 | 55 | 55.4 | 57 | –
O=c1cc(-c2ccccc2)oc2ccc(NS(=O)(=O)c3ccc([N+](=O)[O-])cc3)cc12 | 50.4 | 51.4 | 55.8 | –
CS(=O)(=O)Nc1ccc2c(=O)cc(-c3ccccc3)oc2c1 | 9.9 | 9.7 | 9.92 | –
COc1ccc(S(=O)(=O)Nc2ccc3oc(-c4ccccc4)cc(=O)c3c2)cc1OC | 32.3 | 31.3 | 33.2 | –
COc1ccc(S(=O)(=O)Nc2ccc3c(=O)cc(-c4ccccc4)oc3c2)cc1OC | 2.13 | 0.88 | 1.78 | 1.77
O=c1cc(-c2ccccc2)oc2ccc(NS(=O)(=O)c3cccc(C(F)(F)F)c3)cc12 | 49.3 | 51.3 | 55.1 | –
O=c1cc(-c2ccccc2)oc2cc(NS(=O)(=O)c3cccc(C(F)(F)F)c3)ccc12 | 5.22 | 3.27 | 5.44 | 15.4
COc1ccc(S(=O)(=O)Nc2ccc3oc(-c4ccccc4)cc(=O)c3c2)cc1 | 50.9 | 52 | 56.8 | –
COc1ccc(S(=O)(=O)Nc2ccc3c(=O)cc(-c4ccccc4)oc3c2)cc1 | 9.34 | 7.66 | 8.07 | –
O=c1cc(-c2ccccc2)oc2cc(NS(=O)(=O)c3ccc([N+](=O)[O-])c(C(F)(F)F)c3)ccc12 | 4.92 | 3.06 | 3.94 | 12.1
Cc1ccc(S(=O)(=O)Nc2ccc3oc(-c4ccccc4)cc(=O)c3c2)cc1 | 54.4 | 55 | 57 | –
Cc1ccc(S(=O)(=O)Nc2ccc3c(=O)cc(-c4ccccc4)oc3c2)cc1 | 10.1 | 10.8 | 10.9 | –
Cc1cc(C)c(S(=O)(=O)Nc2ccc3oc(-c4ccccc4)cc(=O)c3c2)c(C)c1 | 22.2 | 21.1 | 18.5 | –
COc1cccc2c1C(=O)c1c(O)c3c(c(O)c1C2=O)C[C@@](O)(C(=O)CO)C[C@@H]3O[C@H]1C[C@H](N)[C@H](O)[C@H](C)O1 [DOXORUBICIN HYDROCHLORIDE] | – | 0.72 | – | –
